This is an account of results in patent publication US11661398B2, “Cellular transport system for transferring a sulfonic acid construct carrying a cargo into the cytoplasm of a cell” (Scientist of Fortune, S.A., priority 2017, dated 2023).

Test [1] has as its system PnGGT* P505T. Kind of test: Sulfobutanoyl-p-nitroanilide hydrolysis kinetics. It counts as biochemical, Pseudomonas nitroreducens. The settings on record: 50 mM Tris/HCl (pH 7.0). The method, then: FIG. 31. Sulfobutanoyl-p-nitroanilide hydrolysis kinetics of PnGGT* P505T. The kinetic parameters of PnGGT* P505T were determined in 50 mM Tris/HCl (pH 7.0) with the substrate sulfobutanoyl-p-nitroanilide added to the following concentrations: 50, 100, 250, 500, 750, 1000, 1500 and 2000 μM. […] Fitting of the kinetic data was performed with SigmaPlot v.12.2. Dots represent the average of three independent measurements with standard deviations shown as error bars.
(§1) For the experiments relating to the sulfonate based synthetic transport system, purification of PnGGT ΔN24 and PnGGT ΔN24 D405N containing an N-terminal 6×His-tag was performed according to previous reports (Van Dyke et al., 1992) using Ni-NTA Superflow (Qiagen, Hilden, Germany). For kinetic studies, PnGGT variants were purified with the aid of the 6×His-tag located at the N-terminal end of the large subunit following the same procedure. To exchange the buffer, purified proteins were dialyzed against 50 mM Tris/HCl (pH 7.0).

In test [2] the test system is BW25113 ΔleuB (TK080). Kind of test: Growth on different sulfur sources. It counts as cell-based, E. coli. The settings on record: 1 mM sulfur source, minimal medium, 0.5% glucose, 0.4 mM leucine. The method, then:
FIG. 21: Growth of E. coli on sulfonates. Strains TK080 (a; BW25113 ΔleuB) and TK082 (b; BW25113 ΔleuB ΔssuEADCB ΔtauD) were grown in MS minimal medium supplemented with 0.5% glucose, 0.4 mM L-leucine, 1 mM MgCl2 and 1 mM of a sulfur source. TK080 was able to use the majority of the tested sulfur sources with a similar efficiency as sulfate. […] Dots represent the average of three independent measurements with standard deviations shown as error bars.
For the experiments relating to the sulfonate based synthetic transport system, unless stated otherwise, growth experiments in selective medium were carried out in sulfur free MS minimal medium (4 mM citric acid, 1 mM MgCl2, 20 mM NH4Cl, 50 mM KH2PO4 and 1×NTA mix (10 μM nitrilotriacetic acid, 3 μM CaCl2, 3 μM FeCl3, 1 μM MnCl2, 0.3 μM ZnCl2, 0.3 μM H3B3, 0.3 μM CrC3, 0.3 μM COCl2, 0.3 μM CuCl2, 0.3 μM Ni2C, 0.3 μM Na2MoO4, 0.3 μM Na2SeO3)) supplemented with 0.5% glucose. MgSO4 (1 mM), MgCl2 (1 mM), L-leucine (0.4 mM), IPTG (0.5 mM), aTc (100 ng mL-1), nicotinic acid (various concentrations), 3-picolylamine (various concentrations) and sulfonates (various concentrations) as indicated in the text. […] Synthesis schemes for sulfobutanoyl-p-nitroanilide and other sulfonates are given below.
The sulfonate transporters SsuABC and TauABC transport a wide variety of sulfonate compounds (Eichhorn et al., 2000) and can thus be exploited for the present synthetic transport system. As such, the uptake and utilization of sulfobutanoyl-L-leucine was assessed. The leucine auxotrophic strain BW25113 ΔleuB was tested for growth in minimal medium supplemented with 0.5% glucose, 0.4 mM leucine, 0.4 mM isoleucine and 1 mM of a sulfur-containing compound as the sole sulfur source.

Test [3] concerns the target T1, PnGGT ΔN24 D405N (Pseudomonas nitroreducens, UniProt E0D5C2, D405N).
T1 sequence (E0D5C2 with tags, fused parts or gaps D405N): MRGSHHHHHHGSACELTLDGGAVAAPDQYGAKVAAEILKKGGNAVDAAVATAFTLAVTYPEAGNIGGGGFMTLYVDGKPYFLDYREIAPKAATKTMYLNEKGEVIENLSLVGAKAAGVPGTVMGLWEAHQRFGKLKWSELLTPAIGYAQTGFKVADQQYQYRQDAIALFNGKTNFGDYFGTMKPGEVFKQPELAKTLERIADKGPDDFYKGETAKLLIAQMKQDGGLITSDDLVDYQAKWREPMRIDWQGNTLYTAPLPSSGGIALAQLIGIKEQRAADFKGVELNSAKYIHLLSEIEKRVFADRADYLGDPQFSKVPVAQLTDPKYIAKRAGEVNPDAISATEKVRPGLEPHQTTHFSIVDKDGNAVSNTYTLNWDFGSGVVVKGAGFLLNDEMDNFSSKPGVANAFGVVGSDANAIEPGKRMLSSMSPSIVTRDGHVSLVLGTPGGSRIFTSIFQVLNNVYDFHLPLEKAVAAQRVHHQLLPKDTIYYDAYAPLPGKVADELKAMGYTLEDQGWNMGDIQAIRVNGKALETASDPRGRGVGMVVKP
Nature of the test: Kinetic measurements with purified PnGGT ΔN24 D405N. Type of test: biochemical. As to conditions: purified enzyme, 50 mM Tris-HCl (pH 9.0). Here is the method: as §1
To determine the kinetic parameters of PnGGT ΔN24 and PnGGT ΔN24 D405N the purified enzymes were preincubated in 50 mM Tris-HCl (pH 9.0). To start the reaction, varying concentrations of the substrates L-glutamic acid γ-(3-carboxy-4-nitroanilide) or sulfobutanoyl-p-nitroanilide were added to the mixtures. The results were evaluated using GraphPad Prism (GraphPad Software, La Jolla, Calif., USA).

Test [4] addresses T1, PnGGT ΔN24 D405N. Kind of test: Colorimetric GGT assay in whole cell lysates / cell free extracts. Type of test: biochemical. The settings on record: whole cell lysate, 4 mM substrate, 50 mM Tris-HCl (pH 9.0), 410 nm. From the text:
FIG. 22: Identification of GGT* activity and refactoring of the ssuABC operon. […] The release of 4-nitroaniline was quantified by measuring the absorption at 410 nm. (b) Plasmid map of the three-dimensional RBS-library for refactoring the ssuABC operon using 144 RBS variants per gene. RBS library sequences are underlined. Arrows point towards the final RBS sequences observed in plasmid pSsuABC. […] (e) Growth of strain TK088[pSsuABC]transformed with the empty vector pACT3 (black circles) or plasmid pPnGGT* (white circles) in liquid MS minimal medium supplemented with 0.5% glucose, 1 mM MgSO4, 0.4 mM L-leucine, 0.5 mM IPTG, 100 ng ml^−1 aTc and 0.5 mM sulfobutanoyl-L-histidine. Bars and dots from panels (a), (d) and (e) represent the average of three independent measurements with standard deviations shown as error bars.
To test for the desired activity a colorimetric enzyme assay was chosen and the substrate sulfobutanoyl-p-nitroanilide was synthesized for this purpose. Hydrolysis of this colorless substrate by a GGT variant into sulfobutanoic acid and the yellow dye 4-nitroaniline can be quantified photometrically at 410 nm. For that, cytoplasmic GGT variants containing an N-terminal 6×His-tag were first expressed from E. coli (EcGGT ΔN24) and Pseudomonas nitroreducens (PnGGT ΔN24), as well as EcGGT ΔN24 D433N and the corresponding mutant variant PnGGT ΔN24 D405N. […]

Structures can show the parent of a compound that is named as a salt.

Broadly, the Km is the substrate concentration at which the rate is half of its maximum. In general, Vmax refers to the rate approached at saturating substrate. For orientation: kcat means the number of substrate molecules converted per active site and unit of time at saturation.

With `O=C(CCCS(=O)(=O)O)Nc1ccc([N+](=O)[O-])cc1` [sodium salt], in test [1], the “improvement of catalytic efficiency (kcat/KM) over PnGGT*” value turned out to be 39% and the “improvement of kcat over PnGGT*” value is 8%. Besides, the “lower K (KM) over PnGGT*” value in test [1] (50-2000 μM substrate) is reported as 27%. Also, the “growth with compound as sole sulfur source” value in test [2] is recorded as “comparable to growth on other sulfonates”. In test [3], the Km stood at 767 µM, the maximal velocity (Vmax) is 10.35 ± 0.28 µmol/min/mg and the kcat is 10.2 s⁻¹. Also, in test [4], the hydrolysis of substrate result is listed as “significantly higher activity than EcGGT ΔN24 D433N”.
